Converted amounts (≈) assume the structure as drawn. The source made the active and inactive calls. No cut-off for these calls is given here.
What was measured:
Staphylococcus aureus [1] = test: Antibiofilm activity against Staphylococcus aureus SA1199B preform-matured biofilm assessed as increase in biofilm inactivation upto 10 times of MIC incubated upto 24 hrs relative to control; type: functional; conditions: time hrs <=24
Staphylococcus aureus [2] = test: Inhibition of cell adhesion in Staphylococcus aureus CECT 976 assessed as decrease in CFU at 10 times of MIC incubated upto 24 hrs relative to control; type: functional; conditions: time hrs <=24
Staphylococcus aureus [3] = test: Antibacterial activity against Staphylococcus aureus CECT 976 assessed as reduction in bacterial growth incubated for 24 hrs by broth microdilution method; type: functional
Staphylococcus aureus [4] = test: Inhibition of cell adhesion in Staphylococcus aureus CECT 976 assessed as decrease in biomass content at upto 10 times of MIC incubated upto 24 hrs relative to control; type: functional; conditions: time hrs <=24
Staphylococcus aureus [5] = test: Antibiofilm activity against Staphylococcus aureus RN4220 preform-matured biofilm assessed as reduction in CFU per cm2 at 5 times of MIC incubated upto 24 hrs; type: functional; conditions: time hrs <=24
Staphylococcus aureus [6] = test: Antibacterial activity against Staphylococcus aureus RN4220 assessed as reduction in bacterial growth incubated for 24 hrs by broth microdilution method; type: functional
[7] = Antibacterial activity against Paracoccus yeei assessed as reduction in bacterial growth at pH 5 incubated for 24 hrs by broth microdilution method; type: functional
Cell membrane [8] = test: Destabilization of cytoplasmic membrane integrity in Staphylococcus aureus CECT 976 at MIC incubated for 1 hr by epifluorescence microscope analysis (reference value: 10.6 %); type: subcellular
Cell membrane [9] = test: Effect on surface tension of Staphylococcus aureus CECT 976 assessed as electron acceptor component at 0.25 times of MIC incubated for 1 hr (reference value: 0.5 +/- 0.1 mJ/m2); type: subcellular
Cell membrane [10] = test: Effect on surface tension of Staphylococcus aureus CECT 976 assessed as Lewis acid-base at 0.5 times of MIC incubated for 1 hr (reference value: 10.5 +/- 1.3 mJ/m2); type: subcellular
Staphylococcus aureus [11] = test: Antibacterial activity against Staphylococcus aureus SA1199B assessed as reduction in bacterial growth incubated for 24 hrs by broth microdilution method; type: functional
Staphylococcus aureus [12] = test: Antibacterial activity against Staphylococcus aureus assessed as reduction in bacterial growth at pH 7 incubated for 24 hrs by broth microdilution method; type: functional
Cell membrane [13] = test: Effect on surface tension of Staphylococcus aureus CECT 976 assessed as hydrophobicity at MIC incubated for 1 hr (reference value: 34.8 +/- 1.3 mJ/m2); type: subcellular
Staphylococcus aureus [14] = test: Antibiofilm activity against Staphylococcus aureus CECT 976 preform-matured biofilm assessed as reduction in CFU at MIC incubated for 24 hrs; type: functional, organism-based
Staphylococcus aureus [15] = test: Antibiofilm activity against Staphylococcus aureus CECT 976 preform-matured biofilm assessed as reduction in CFU per cm2 at MIC incubated for 6 hrs; type: functional
Staphylococcus aureus [16] = test: Bactericidal activity against Staphylococcus aureus RN4220 assessed as reduction in bacterial growth incubated for 24 hrs by broth microdilution method; type: functional
Cell membrane [17] = test: Effect on surface tension of Staphylococcus aureus CECT 976 assessed as Lifshitz-van der Waals at MIC incubated for 1 hr (reference value: 40.5 +/- 0.0 mJ/m2); type: subcellular
Streptococcus pneumoniae = test: Inhibition of biofilm formation in Streptococcus pneumoniae incubated for 24 hrs by crystal violet staining based assay relative to control; type: functional
Staphylococcus aureus [18] = test: Bactericidal activity against Staphylococcus aureus XU212 assessed as reduction in bacterial growth incubated for 24 hrs by broth microdilution method; type: functional
Staphylococcus aureus [19] = test: Inhibition of cell adhesion in Staphylococcus aureus CECT 976 assessed as decrease in CFU at 5 times of MIC incubated upto 24 hrs relative to control; type: functional; conditions: time hrs <=24
Staphylococcus aureus [20] = test: Antibiofilm activity against Staphylococcus aureus CECT 976 preform-matured biofilm assessed as increase in biofilm removal at 10 times of MIC incubated for 6 hrs relative to control; type: functional
Staphylococcus aureus [21] = test: Antibiofilm activity against Staphylococcus aureus CECT 976 preform-matured biofilm assessed as increase in biofilm removal at upto 10 times of MIC incubated for 1 hr; type: functional, organism-based
Cell membrane [22] = test: Effect on surface tension of Staphylococcus aureus CECT 976 assessed as electron donor component at 0.5 times of MIC incubated for 1 hr (reference value: 55 +/- 0.9 mJ/m2); type: subcellular
Staphylococcus aureus [23] = test: Antibacterial activity against Staphylococcus aureus XU212 assessed as reduction in bacterial growth incubated for 24 hrs by broth microdilution method; type: functional
Staphylococcus aureus [24] = test: Bactericidal activity against Staphylococcus aureus SA1199B assessed as reduction in bacterial growth incubated for 24 hrs by broth microdilution method; type: functional
Staphylococcus aureus [25] = test: Antibiofilm activity against Staphylococcus aureus RN4220 preform-matured biofilm assessed as increase in biofilm removal at 5 and 10 times of MIC incubated upto 24 hrs relative to control; type: functional; conditions: time hrs <=24
Cell membrane [26] = test: Effect on surface tension of Staphylococcus aureus CECT 976 assessed as electron acceptor component at 0.5 times of MIC incubated for 1 hr (reference value: 0.5 +/- 0.1 mJ/m2); type: subcellular
Cell membrane [27] = test: Effect on surface tension of Staphylococcus aureus CECT 976 assessed as electron donor component at 0.25 times of MIC incubated for 1 hr (reference value: 55 +/- 0.9 mJ/m2); type: subcellular
Staphylococcus aureus [28] = test: Antibiofilm activity against Staphylococcus aureus XU212 preform-matured biofilm assessed as increase in biofilm removal at MIC incubated upto 24 hrs relative to control; type: functional; conditions: time hrs <=24
Staphylococcus aureus [29] = test: Antibiofilm activity against Staphylococcus aureus XU212 preform-matured biofilm assessed as reduction in CFU upto 10 times of MIC incubated upto 24 hrs relative to control; type: functional; design: scale not given: the % may be the effect or the level left; conditions: time hrs <=24
Staphylococcus aureus [30] = test: Antibiofilm activity against Staphylococcus aureus XU212 preform-matured biofilm assessed as increase in biofilm removal at 5 and 10 times of MIC incubated upto 24 hrs relative to control; type: functional; conditions: time hrs <=24

MIC (Staphylococcus aureus [3]): 500 µg/mL (≈ 2.42 mM)
MIC (Staphylococcus aureus [6]): 2000 µg/mL (≈ 9.7 mM)
MIC [7]: 1250 µg/mL (≈ 6.06 mM)
Activity (Cell membrane [8]): 97.9%
Activity (Cell membrane [9]): 0.7 mJ/m2
Activity (Cell membrane [10]): 13.8 mJ/m2
MIC (Staphylococcus aureus [11]): 1000 µg/mL (≈ 4.85 mM)
MIC (Staphylococcus aureus [12]): > 600 µg/mL
Activity (Cell membrane [13]): 30.1 mJ/m2
Activity (Cell membrane [17]): 38 mJ/m2
Activity (Cell membrane [22]): 49.7 mJ/m2
MIC (Staphylococcus aureus [23]): 1600 µg/mL (≈ 7.76 mM)
Activity (Cell membrane [26]): 1.1 mJ/m2
Activity (Cell membrane [27]): 48.8 mJ/m2
SMILES: CC(C)Cc1ccc(C(C)C(=O)O)cc1 (stereo unspecified) [IBUPROFEN]
Activity (Staphylococcus aureus [1]): <=55%
inhibition (INH) (Staphylococcus aureus [2]): 100%
inhibition (INH) (Staphylococcus aureus [4]): <=38.5%
Activity (Staphylococcus aureus [5]): 1.8 log10CFU
inhibition (Staphylococcus aureus [14]): Active
Activity (Staphylococcus aureus [15]): 0.8 log10CFU
MBC (Staphylococcus aureus [16]): > 2000 µg/mL
inhibition (INH) (Streptococcus pneumoniae): 37%
MBC (Staphylococcus aureus [18]): 1600 µg/mL (≈ 7.76 mM)
inhibition (INH) (Staphylococcus aureus [19]): 100%
inhibition (INH) (Staphylococcus aureus [20]): 39%
inhibition (Staphylococcus aureus [21]): Dose-dependent effect
MBC (Staphylococcus aureus [24]): 1600 µg/mL (≈ 7.76 mM)
Activity (Staphylococcus aureus [25]): 0%
Activity (Staphylococcus aureus [28]): <=14%
Activity (Staphylococcus aureus [29]): 100%
Activity (Staphylococcus aureus [30]): 0%
